Columns and labels:
Assay in all cases: Human cancer cell line panel, proliferation (sulforhodamine B)
Format in all cases: cell-based
[1] = test system: brain tumor cell line SF-268; settings: SF-268, 2 days of cultivation; read-out: 50% inhibitory concentration, proliferation
[2] = test system: kidney cancer cell line ACHN; settings: 2 days of cultivation, read-out: 50% inhibitory concentration, proliferation
[3] = test system: ovarian cancer cell line SK-OV-3; settings: SK-OV-3, 2 days of cultivation; read-out: 50% inhibitory concentration, proliferation
[4] = test system: brain tumor cell line SF-295; settings: SF-295, 2 days of cultivation; read-out: 50% inhibitory concentration, proliferation

IC50 [1]: ≤ 100 nM
IC50 [2]: ≤ 100 nM
IC50 [3]: ≤ 100 nM
IC50 [4]: ≤ 100 nM
Structure (SMILES): CC(=O)CSCCCCC[C@@H]1NC(=O)[C@H]2CCCN2C(=O)[C@H](Cc2ccccc2)NC(=O)C(C)(C)NC1=O [Ky-72, cyclo(-L-Am7(acetonyl)-Aib-L-Phe-D-Pro-)]

From US8158587B2, “Compound having histone deacetylase-inhibiting activity, and pharmaceutical composition comprising the compound as an active ingredient” (Kyushu Institute of Technology, priority 2006, dated 2012)
